Data published in paper PMC11472313, “Development of Fragment-Based Inhibitors of the Bacterial Deacetylase LpxC with Low Nanomolar Activity” (Journal of Medicinal Chemistry, 2024).
In brackets after ≈: the same amount, converted by molar mass. Several values for one entry are separate records, joined by “and”; a condition that tells them apart may be missing. Equal entries are not always repeated.

What was measured:
[1] = biological target: T1, E. coli LpxC C63A (Escherichia coli, UniProt P0A725, C63A); experiment: fluorescence-based E. coli LpxC C63A enzyme inhibition assay; assay type: biochemical; details: for fold higher LpxC inhibitory activity than its enantiomer (eudysmic ratio): E. coli LpxC C63A, (S) versus (R); for Ki: Ki E. coli LpxC C63A, from IC50 via Cheng–Prusoff
T1 construct: made in house; host or cells: E. coli BL21(DE3)
In short: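 Purified E. coli LpxC C63A (15 nM) was incubated with 25 µM UDP-3-O-[(R)-3-hydroxymyristoyl]-GlcNAc in MES pH 6.0 buffer (2% DMSO) for 30 min at 37 °C. Compounds ranged from 20 nM to 20 µM. Product was derivatized with o-phthaldialdehyde/2-mercaptoethanol and read by fluorescence (ex 340/em 460), with IC50 converted to Ki via Cheng–Prusoff.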

[2] = biological target: T2, LasB (Pseudomonas aeruginosa, UniProt Q02RJ6); experiment: FRET-based LasB in vitro inhibition assay; assay type: biochemical, P. aeruginosa PA14; details: for inhibition at 20 µM: read-out: LasB Inhibition at 20 μM
T2 construct: The elastase LasB of P. aeruginosa is a secreted metalloprotease; endogenous in cells; host or cells: P. aeruginosa PA14 culture supernatant
Protocol: Purification of LasB from P. aeruginosa PA14 supernatant and the subsequent performance of the FRET-based in vitro inhibition assay was performed as described previously.[66] The TACE (ADAM-17) inhibitor screening kit was purchased from Sigma-Aldrich (Saint Louis, MO). MMPs 1–3 along with the SensoLyte 520 Generic MMP Activity Kit Fluorimetric were purchased from AnaSpec (Fremont, CA, USA). The assays were performed according to the guidelines of the respective manufacturer. Fluorescence signals were measured using a CLARIOstar plate reader (BMG Labtech, Ortenberg, Germany).

[3] = system: E. coli D22; experiment: MIC, broth microdilution; assay type: cell-based; details: Escherichia coli, 20 h, 37 °C, LB
In short: (§1)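 LB broth microdilution, inoculum 5 × 10^5 cfu mL^–1, 5% DMSO, 2-fold compound series 64–0.016 μg mL^–1 final, incubated 20 h at 37 °C. MIC was the lowest concentration preventing visible growth, from at least three runs on separate days.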

[4] = system: E. coli BL21(DE3); experiment: MIC, broth microdilution; assay type: cell-based; details: 20 h, 37 °C, LB; for MIC: Escherichia coli
In short: as §1

[5] = system: E. coli D22; experiment: disc diffusion assay; assay type: cell-based; details: 0.15 μmol per 6 mm disc
[6] = system: E. coli BL21(DE3); experiment: disc diffusion assay; assay type: cell-based; details: 0.15 μmol per 6 mm disc
[7] = system: K. pneumoniae ATCC 700603; experiment: disc diffusion assay; assay type: cell-based, Klebsiella pneumoniae; details: 0.15 μmol per 6 mm disc
Protocol: (§2) In the performed disc diffusion assays, indole derivatives (S)-13h, (S)-13i, and (S)-13j caused promising halos of growth inhibition.
(§3) The disc diffusion assays against E. coli TOP10 (Thermo Fisher, Waltham, USA), E. coli ATCC 35218, K. pneumoniae ATCC 700603, and P. aeruginosa ATCC 27853 were performed as follows: the bacteria were grown overnight on a Columbia blood agar plate (Oxoid, Basingstoke, UK), and one colony was suspended in sterile saline to yield a suspension of 0.5 McFarland standard. Using a sterile swab, the suspension was spread evenly onto Mueller–Hinton agar (Oxoid, Basingstoke, UK). 0.15 μmol of each compound (dissolved in 10 μL DMSO) was applied onto circular 6 mm diameter filter paper disks, which were then placed on the agar. After incubating the agar plates for 20 h at 37 °C, the diameter of the zone of growth inhibition was measured for each compound.

[8] = system: P. aeruginosa ATCC 27853; experiment: disc diffusion assay; assay type: cell-based; details: 0.15 μmol per 6 mm disc
Protocol: as §2, §3

[9] = system: E. coli TOP10; experiment: disc diffusion assay; assay type: cell-based; details: 0.15 μmol per 6 mm disc
Protocol: as §2, §3

[10] = system: E. coli ATCC 35218; experiment: disc diffusion assay; assay type: cell-based; details: 0.15 μmol per 6 mm disc
Protocol: as §2, §3

T2 sequence (Q02RJ6 198-498): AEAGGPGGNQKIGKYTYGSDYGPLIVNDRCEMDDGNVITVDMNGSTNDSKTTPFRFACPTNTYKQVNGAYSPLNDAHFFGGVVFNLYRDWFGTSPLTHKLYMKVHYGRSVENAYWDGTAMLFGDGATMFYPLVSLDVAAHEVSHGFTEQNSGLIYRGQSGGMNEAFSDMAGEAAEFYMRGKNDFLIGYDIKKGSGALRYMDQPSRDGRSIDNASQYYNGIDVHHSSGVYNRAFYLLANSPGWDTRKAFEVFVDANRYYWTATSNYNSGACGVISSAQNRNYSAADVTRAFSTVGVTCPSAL
T1 sequence (P0A725 whole entry C63A): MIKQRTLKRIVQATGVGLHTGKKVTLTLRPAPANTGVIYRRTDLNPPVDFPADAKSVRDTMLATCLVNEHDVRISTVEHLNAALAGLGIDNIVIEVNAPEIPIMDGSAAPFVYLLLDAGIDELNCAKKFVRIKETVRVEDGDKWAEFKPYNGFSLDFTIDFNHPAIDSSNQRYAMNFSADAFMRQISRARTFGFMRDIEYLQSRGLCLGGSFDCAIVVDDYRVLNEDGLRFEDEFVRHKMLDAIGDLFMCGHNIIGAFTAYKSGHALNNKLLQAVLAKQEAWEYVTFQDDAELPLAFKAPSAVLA

| Compound | fold higher LpxC inhibitory activity than its enantiomer (eudysmic ratio) [1] | Ki [1] | IC50 [2] | inhibition at 20 µM [2] | MIC [3] | MIC [4] | Inhibition zone E. coli D22 [5] | Inhibition zone E. coli BL21(DE3) [6] | Inhibition zone K. pneumoniae ATCC 700603 [7] | Inhibition zone P. aeruginosa ATCC 27853 [8] | Inhibition zone E. coli TOP 10 [9] | Inhibition zone E. coli ATCC 35218 [10] | LasB Inhibition at 20 μM [2] | MIC E. coli BL21(DE3) [4] |
| --- | --- | --- | --- | --- | --- | --- | --- | --- | --- | --- | --- | --- | --- | --- |
| O=C(NO)[C@H](COCc1ccccc1)OCc1ccc(C#Cc2ccc(CN3CCOCC3)cc2)cc1 [(S)-11a, (S)-3-(Benzyloxy)-N-hydroxy-2-[(4-{[4-(morpholinomethyl)phenyl]ethynyl}benzyl)oxy]propanamide] | 6 fold | 606 ± 356 nM | 14300 ± 900 nM | 62.3 ± 3.2% | 0.5 µg/mL (≈ 0.999 µM) | > 32 µg/mL | 15.4 ± 2.4 mm | ≤6 mm | – | – | – | – | – | – |
| O=C(NO)[C@H](CNCc1ccccc1)OCc1ccc(C#Cc2ccc(CN3CCOCC3)cc2)cc1 [(S)-12a, (S)-3-(Benzylamino)-N-hydroxy-2-[(4-{[4-(morpholinomethyl)phenyl]ethynyl}benzyl)oxy]propanamide] | – | 4590 ± 1260 nM | 21900 ± 1200 nM | 57 ± 2% | 0.5 µg/mL (≈ 1 µM) | 16 µg/mL (≈ 32 µM) | 24.3 ± 2.1 mm | 13.0 ± 1.0 mm | – | – | – | – | – | – |
| O=C(NC[C@H](OCc1ccc(C#Cc2ccc(CN3CCOCC3)cc2)cc1)C(=O)NO)c1ccccc1 [(S)-13a, (S)-N-{3-(Hydroxyamino)-2-[(4-{[4-(morpholinomethyl)phenyl]ethynyl}benzyl)oxy]-3-oxopropyl}benzamide] | 17 fold | 150 nM and 149 nM | – | 20.1 ± 3.9% | 0.13 µg/mL (≈ 0.253 µM) | 8 µg/mL (≈ 15.6 µM) | 26.3 ± 1.5 mm | 15.7 ± 1.6 mm | 7.0 ± 1.0 mm | 7.0 ± 1.0 mm | 23.3 ± 0.6 mm | 19.3 ± 0.6 mm | – | – |
| O=C(NC[C@H](OCc1ccc(C#Cc2ccc(CN3CCOCC3)cc2)cc1)C(=O)NO)c1cccc(-c2ccccc2)c1 [(S)-13c] | – | 42 nM and 41.5 nM | – | < 10% | 0.13 µg/mL (≈ 0.22 µM) | > 16 µg/mL | 19.0 ± 1.5 mm | ≤6 mm | <6 mm | 6.3 ± 0.6 mm | 8.0 ± 0 mm | 7.7 ± 1.5 mm | little to no inhibitory activity | – |
| O=C(NC[C@H](OCc1ccc(C#Cc2ccc(CN3CCOCC3)cc2)cc1)C(=O)NO)c1ccc(Oc2ccccc2)cc1 [(S)-13d] | – | 323 ± 126 nM | – | < 10% | 0.25 µg/mL (≈ 0.413 µM) | > 16 µg/mL | 9.3 ± 1.6 mm | ≤6 mm | <6 mm | 6.3 ± 0.6 mm | <6 mm | 7.0 ± 1.0 mm | little to no inhibitory activity | – |
| O=C(NC[C@H](OCc1ccc(C#Cc2ccc(CN3CCOCC3)cc2)cc1)C(=O)NO)c1ccc2ccccc2n1 [(S)-13e] | – | 377 ± 83 nM | – | 11.6 ± 1.9% | 0.25 µg/mL (≈ 0.443 µM) | > 16 µg/mL | 16.0 ± 2.5 mm | ≤6 mm | <6 mm | 6.3 ± 0.6 mm | 8.0 ± 0 mm | 7.7 ± 1.5 mm | little to no inhibitory activity | – |
| O=C(NC[C@H](OCc1ccc(C#Cc2ccc(CN3CCOCC3)cc2)cc1)C(=O)NO)c1cnc2ccccc2c1 [(S)-13f] | – | 117 ± 21 nM | – | < 10% | 0.25 µg/mL (≈ 0.443 µM) | > 16 µg/mL | 29.0 ± 1.0 mm | 11.5 ± 2.1 mm | <6 mm | <6 mm | 18.0 ± 6.0 mm | 15.0 ± 0 mm | little to no inhibitory activity | – |
| O=C(NC[C@H](OCc1ccc(C#Cc2ccc(CN3CCOCC3)cc2)cc1)C(=O)NO)c1cc2ccccc2[nH]1 [(S)-13g] | – | 87 ± 58.5 nM | – | < 10% | 0.063 µg/mL (≈ 0.114 µM) | 4 to 8 µg/mL (≈ 7.24 to 14.5 µM) | 23.0 ± 1.0 mm | 10.0 ± 1.0 mm | <6 mm | <6 mm | 16.0 ± 6.1 mm | 10.7 ± 0.6 mm | little to no inhibitory activity | 8.0 µg/mL (≈ 14.5 µM) |
| O=C(NC[C@H](OCc1ccc(C#Cc2ccc(CN3CCOCC3)cc2)cc1)C(=O)NO)c1c[nH]c2ccccc12 [(S)-13h] | – | 10.7 ± 1.2 nM | – | 25.2 ± 5.6% | 0.031 µg/mL (≈ 0.0561 µM) | 1 to 4 µg/mL (≈ 1.81 to 7.24 µM) | 29.3 ± 1.6 mm | 19.7 ± 1.6 mm | 6.7 ± 1.2 mm | 7.0 ± 1.0 mm | 18.7 ± 5.8 mm | 19.0 ± 1.0 mm | little to no inhibitory activity | 1.0 µg/mL (≈ 1.81 µM) |
| O=C(NC[C@H](OCc1ccc(C#Cc2ccc(CN3CCOCC3)cc2)cc1)C(=O)NO)c1cccc2[nH]ccc12 [(S)-13i] | – | 15.3 ± 3.6 nM | – | 27.6 ± 2.9% | 0.031 µg/mL (≈ 0.0561 µM) | – | >30 mm | 20.4 ± 1.6 mm | 7.3 ± 1.2 mm | 6.3 ± 0.6 mm | 23.0 ± 1.0 mm | 17.0 ± 3.5 mm | little to no inhibitory activity | – |
| O=C(NC[C@H](OCc1ccc(C#Cc2ccc(CN3CCOCC3)cc2)cc1)C(=O)NO)c1ccc2[nH]ccc2c1 [(S)-13j] | – | 9.5 nM and 9.45 nM | – | < 10% | 0.031 µg/mL (≈ 0.0561 µM) | 1 to 4 µg/mL (≈ 1.81 to 7.24 µM) | 29.0 ± 1.6 mm | 20.0 ± 1.0 mm | 8.0 ± 1.7 mm | 8.3 ± 0.6 mm | 22.3 ± 3.8 mm | 21.0 ± 1.0 mm | little to no inhibitory activity | 2.0 µg/mL (≈ 3.62 µM) |
| O=C(NC[C@H](OCc1ccc(C#Cc2ccc(CN3CCOCC3)cc2)cc1)C(=O)NO)c1ccc[nH]1 [(S)-13k] | – | 97.1 ± 9.4 nM | – | 22.4 ± 3.1% | 0.063 µg/mL (≈ 0.125 µM) | 4 to 8 µg/mL (≈ 7.96 to 15.9 µM) | >30 mm | 23.3 ± 0.6 mm | 9.5 ± 0.7 mm | 9.0 ± 1.4 mm | 27.0 ± 2.8 mm | 23.0 ± 1.4 mm | – | 4.0 µg/mL (≈ 7.96 µM) |
| O=C(NO)[C@H](CN(Cc1ccccc1)Cc1ccccc1)OCc1ccc(C#Cc2ccc(CN3CCOCC3)cc2)cc1 [(S)-37, (S)-3-(Dibenzylamino)-N-hydroxy-2-[(4-{[4-(morpholinomethyl)phenyl]ethynyl}benzyl)oxy]propanamide] | – | > 2540 nM | – | < 10% | 16 µg/mL (≈ 27.1 µM) | > 16 µg/mL | 7.7 ± 1.2 mm | ≤6 mm | – | – | – | – | no inhibitory activity | – |
